Assay results taken from patent publication US20250136606A1, “MODULATORS OF TRPML, THEIR COMPOSITIONS AND METHODS OF USE” (Caraway Therapeutics, Inc., priority 2021, published 2025).
pEC50: −log10 of the molar value. Read-outs that look alike come from different tables or passages of the source.

Legend:
Format in all cases: cell-based
TRPML1 = TRPML1 (Homo sapiens, UniProt Q9GZU1); assay: Fluorescent TRPML1 assay (Fluo4-AM calcium fluorescence in doxycycline-induced HEK-293 Trex cells)
Method in brief: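 HEK-293 Trex cells stably expressing surface-directed mutant human TRPML1, induced with 0.5 µg/mL doxycycline overnight, were loaded with 1 µM Fluo4-AM and added to compound (6 nM–20 µM final, half-log steps, triplicate) in Ringer's with 10 mM calcium. Fluorescence ex 480/em 540; EC50 by non-linear regression versus plate controls.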

TRPML2 = target: T1, TRPML2 (Homo sapiens, UniProt Q8IZK6); assay: Fluorescent TRPML2 assay (performed as for TRPML1, substituting the TRPML2 subtype)
T1 construct: expressed in transfected cells
T1 sequence (Q8IZK6 1-566): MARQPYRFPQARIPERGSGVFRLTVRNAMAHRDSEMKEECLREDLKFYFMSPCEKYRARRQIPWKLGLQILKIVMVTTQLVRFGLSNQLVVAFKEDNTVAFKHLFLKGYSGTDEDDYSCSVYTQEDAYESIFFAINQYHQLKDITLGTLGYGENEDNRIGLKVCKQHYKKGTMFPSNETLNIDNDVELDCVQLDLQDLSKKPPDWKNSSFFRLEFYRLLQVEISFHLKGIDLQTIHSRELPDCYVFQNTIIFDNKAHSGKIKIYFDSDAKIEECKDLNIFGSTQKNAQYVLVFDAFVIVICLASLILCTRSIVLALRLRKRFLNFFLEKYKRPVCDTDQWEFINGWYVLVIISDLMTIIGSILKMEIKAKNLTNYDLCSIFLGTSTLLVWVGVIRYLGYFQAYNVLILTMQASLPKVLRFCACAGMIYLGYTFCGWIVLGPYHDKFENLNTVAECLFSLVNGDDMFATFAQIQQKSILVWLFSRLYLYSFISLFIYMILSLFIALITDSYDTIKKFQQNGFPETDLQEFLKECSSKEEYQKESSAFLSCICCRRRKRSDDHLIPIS
Procedure: HEK-293 Trex cells were stably transfected with a construct consisting of the human coding sequence for TRPML1 cloned into the […] plasmid pCDNA5 T/O. Mutations were introduced into the TRPML1 sequence to facilitate expression on the cell surface (Silvia Vergarajauregui, Rosa Puertollano, Traffic. 2006 March; 7(3): 337-353). Briefly, the cells are cultured in 150 mm round tissue culture dishes containing 20 mL of media. The day before the assay the cells are rinsed with DPBS-Ca—Mg and then treated briefly with Trypsin-EDTA. The Trypsin-EDTA is diluted with growth media, and cells are counted. 38×10^6 cells are re-plated into 150 mm round tissue culture dishes in media containing 0.5 ug/mL doxycycline to induce expression of hTRPML1.
The day of the experiment cells are lifted from the plates as above and collected by centrifugation. The cells are then suspended in dye loading buffer consisting of Ringer's solution supplemented with 0.1% Pluronic Acid and 1 micromolar Fluo4-AM dye. Cells are loaded for ˜60 minutes in the dark with occasional mixing. The cells are collected by centrifugation, the loading media aspirated, and the cells resuspended in 25 mL Ringer's solution and incubated ˜60 minutes in the dark. The cells are again collected by centrifugation, rinsed in Ringer's Solution and resuspended to […] in modified Ringer's solution containing 10 mM calcium.
Compounds are dissolved to a concentration of 10 millimolar with DMSO. Compound plates are created by dispensing compounds into 384 well black wall clear bottom plates (Greiner 781091). Positive and negative controls are included on each plate. Typically, different amounts of each compound are tested ranging from 100 nanoMoles (20 micromolar final concentration) decreasing in half-log steps to 31 picoMoles (6 nanomolar final concentration). Each concentration is typically tested in triplicate.
50 microliters of dye-loaded cells are dispensed into each well of the compound assay plate created above. The fluorescence in each well is then determined with an excitation wavelength of 480 nm and an emission wavelength of 540 nm using either a Molecular Devices SpectraMax multimode plate reader or a Hamamatsu FDSS/uCell plate imager.
The resulting fluorescence for each well is exported as an ascii file and loaded into our LIMS for analysis. The percent activity of each compound at each concentration is determined by comparison to the positive and negative control wells included in each plate.
TRPML2 and TRPML3 Assays Assays for TRPML2 and TRPML3 were performed as above for TRPML1, by substituting the appropriate TRPML2 or TRPML3 subtype for the TRPML1.
EC50 values were calculated using a non-linear regression of Prism. In the table, “A” indicates an EC50 of less than 100 nM, “B” indicates an EC50 range from 100 nM to 500 nM; “C” indicates an EC50 range from 500 nM to 2 μM; and “D” indicates an EC50 greater than 2 μM.

TRPML3 = target: T2, TRPML3 (Homo sapiens, UniProt Q8TDD5); assay: Fluorescent TRPML3 assay (performed as for TRPML1, substituting the TRPML3 subtype)
T2 construct: expressed in transfected cells
T2 sequence (Q8TDD5 1-553): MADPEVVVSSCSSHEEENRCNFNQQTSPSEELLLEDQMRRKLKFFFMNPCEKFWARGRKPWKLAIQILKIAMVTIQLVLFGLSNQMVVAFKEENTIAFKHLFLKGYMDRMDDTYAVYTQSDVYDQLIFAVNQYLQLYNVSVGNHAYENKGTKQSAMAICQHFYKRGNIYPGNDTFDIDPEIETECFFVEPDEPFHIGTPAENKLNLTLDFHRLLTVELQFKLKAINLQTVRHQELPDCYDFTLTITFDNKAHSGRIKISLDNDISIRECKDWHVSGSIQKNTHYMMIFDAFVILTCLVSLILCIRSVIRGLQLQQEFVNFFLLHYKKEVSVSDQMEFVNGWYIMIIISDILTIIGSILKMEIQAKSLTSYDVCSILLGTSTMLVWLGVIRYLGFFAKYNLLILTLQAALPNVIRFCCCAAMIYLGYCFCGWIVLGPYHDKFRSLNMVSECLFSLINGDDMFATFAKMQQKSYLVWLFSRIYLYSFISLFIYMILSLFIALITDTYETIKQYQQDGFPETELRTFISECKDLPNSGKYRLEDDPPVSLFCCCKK
Method in brief: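 Calcium-influx readout: Fluo4 fluorescence at 480/540 nm, normalised to positive and negative controls per plate, EC50 fitted by non-linear regression. Cells were HEK-293 Trex stable lines, channel expression induced overnight with 0.5 ug/mL doxycycline; tested at 20 micromolar down to 6 nanomolar final, half-log steps, triplicate.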

Chain of TRPML1 (Q9GZU1 whole entry L15A/L16A/L577A/L578A, form open): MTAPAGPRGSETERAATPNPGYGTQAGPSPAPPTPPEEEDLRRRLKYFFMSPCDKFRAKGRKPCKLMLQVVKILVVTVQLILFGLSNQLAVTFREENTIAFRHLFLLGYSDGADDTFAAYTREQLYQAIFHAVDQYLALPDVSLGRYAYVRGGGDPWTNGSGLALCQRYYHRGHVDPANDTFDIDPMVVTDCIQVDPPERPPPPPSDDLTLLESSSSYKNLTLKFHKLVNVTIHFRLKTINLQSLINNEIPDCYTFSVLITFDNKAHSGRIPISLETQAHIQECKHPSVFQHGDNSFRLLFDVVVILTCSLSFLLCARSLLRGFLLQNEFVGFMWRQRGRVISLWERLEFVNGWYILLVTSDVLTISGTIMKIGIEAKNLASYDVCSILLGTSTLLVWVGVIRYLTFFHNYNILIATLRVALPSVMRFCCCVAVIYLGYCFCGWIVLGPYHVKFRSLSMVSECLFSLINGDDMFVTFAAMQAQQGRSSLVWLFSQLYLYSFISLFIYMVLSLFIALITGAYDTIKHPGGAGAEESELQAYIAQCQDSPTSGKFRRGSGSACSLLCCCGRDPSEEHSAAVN

| pEC50 (TRPML1; fluorescent calcium assay) | pEC50 (TRPML2; fluorescent calcium assay) | pEC50 (TRPML3; fluorescent calcium assay) | pEC50 (TRPML1) | pEC50 (TRPML2) | pEC50 (TRPML3) | SMILES |
| --- | --- | --- | --- | --- | --- | --- |
| > 7.00 | 6.30 to 7.00 | > 7.00 |  |  |  | C[C@H]1CN(C(=O)OC(C)(C)C(F)(F)F)CCN1c1ncnc2c1c(C1CC1)cn2-c1ccc(Cl)cc1 [Compound 148, 1,1,1-trifluoro-2-methylpropan-2-yl (S)-4-(7-(4-chlorophenyl)-5-cyclopropyl-7H-pyrrolo[2,3-d]pyrimidin-4-yl)-3-methylpiperazine-1-carboxylate] |
| > 7.00 | > 7.00 | > 7.00 |  |  |  | C[C@H]1CN(C(=O)OC(C)(C)C)CCN1c1ncnc2c1c(C(F)(F)F)cn2-c1cc(C#N)ccn1 [Compound 481, tert-butyl (S)-4-(7-(4-cyanopyridin-2-yl)-5-(trifluoromethyl)-7H-pyrrolo[2,3-d]pyrimidin-4-yl)-3-methylpiperazine-1-carboxylate] |
| 5.70 to 6.30 | 5.70 to 6.30 | 6.30 to 7.00 |  |  |  | C[C@H]1CN(C(=O)OC(C)(C)C)CCN1c1ncnc2c1c(-c1cnccn1)cn2-c1cc(F)cc(F)c1 [Compound 237, tert-butyl-(S)-4-(7-(3,5-difluorophenyl)-5-(pyrazin-2-yl)-7H-pyrrolo[2,3-d]pyrimidin-4-yl)-3-methylpiperazine-1-carboxylate] |
|  |  |  | > 7.00 | > 7.00 | > 7.00 | C[C@@H]1CN(c2ncnc3c2c(C(F)(F)F)cn3-c2cc(C#N)ncn2)[C@@H](C)CN1C(=O)OC(C)(C)C [Compound 509, tert-butyl (2R,5S)-4-(7-(6-cyanopyrimidin-4-yl)-5-(trifluoromethyl)-7H-pyrrolo[2,3-d]pyrimidin-4-yl)-2,5-dimethylpiperazine-1-carboxylate] |
| 6.30 to 7.00 | 6.30 to 7.00 | > 7.00 |  |  |  | C[C@H]1CN(C(=O)OC(C)(C)C(F)(F)F)CCN1c1ncnc2c1c(C1CC1)cn2C1CCCCC1 [Compound 325, 1,1,1-trifluoro-2-methylpropan-2-yl (S)-4-(7-cyclohexyl-5-cyclopropyl-7H-pyrrolo[2,3-d]pyrimidin-4-yl)-3-methylpiperazine-1-carboxylate] |
| 6.30 to 7.00 | 5.70 to 6.30 | 6.30 to 7.00 |  |  |  | C[C@@H]1COCCN1c1cn(-c2cccc(C#N)c2)c2ncnc(N3CCN(C(=O)OC(C)(C)C)C[C@@H]3C)c12 [Compound 369, tert-butyl (S)-4-(7-(3-cyanophenyl)-5-((R)-3-methylmorpholino)-7H-pyrrolo[2,3-d]pyrimidin-4-yl)-3-methylpiperazine-1-carboxylate] |
|  |  |  | > 7.00 | 6.30 to 7.00 | > 7.00 | C[C@H]1CN(C(=O)OC(C)(C)C)CCN1c1ncnc2c1c(C(F)(F)F)cn2-c1cc(F)cc(F)c1 [Compound 495] |
| > 7.00 | > 7.00 | > 7.00 |  |  |  | C[C@@H]1CN(c2ncnc3c2c(-c2ccccc2F)cn3-c2ncc(C#N)s2)[C@@H](C)CN1C(=O)OC(C)(C)C [Compound 434, tert-butyl (2R,5S)-4-(7-(5-cyanothiazol-2-yl)-5-(2-fluorophenyl)-7H-pyrrolo[2,3-d]pyrimidin-4-yl)-2,5-dimethylpiperazine-1-carboxylate] |
|  |  |  | > 7.00 | > 7.00 | > 7.00 | C[C@@H]1CN(c2ncnc3c2c(C2CC2)cn3-c2cccc(F)c2)[C@@H](C)CN1C(=O)OC(C)(C)C [Compound 657, tert-butyl (2R,5S)-4-(5-cyclopropyl-7-(3-fluorophenyl)-7H-pyrrolo[2,3-d]pyrimidin-4-yl)-2,5-dimethylpiperazine-1-carboxylate] |
| 6.30 to 7.00 | > 7.00 | > 7.00 |  |  |  | CC(C)(C)OC(=O)N1CCN(c2ncnc3c2c(C2CC2)cn3-c2ccc(Cl)c(F)c2)CC1 [Compound 145, tert-butyl 4-(7-(4-chloro-3-fluorophenyl)-5-cyclopropyl-7H-pyrrolo[2,3-d]pyrimidin-4-yl)piperazine-1-carboxylate] |
| 6.30 to 7.00 | 5.70 to 6.30 | 6.30 to 7.00 |  |  |  | Cc1nccnc1-c1cn(-c2ccc(F)cc2)c2ncnc(N3C[C@@H](C)N(C(=O)OC(C)(C)C)C[C@@H]3C)c12 [Compound 181, tert-butyl (2R,5S)-4-(7-(4-fluorophenyl)-5-(3-methylpyrazin-2-yl)-7H-pyrrolo[2,3-d]pyrimidin-4-yl)-2,5-dimethylpiperazine-1-carboxylate] |
|  |  |  | > 7.00 | 6.30 to 7.00 | > 7.00 | C[C@@H]1CN(c2nccc3c2c(N2CCC2)cn3-c2cccc(F)c2)[C@@H](C)CN1C(=O)OC(C)(C)C [Compound 638] |
| 6.30 to 7.00 | 5.70 to 6.30 | 6.30 to 7.00 |  |  |  | COc1cc(OC(F)(F)F)cc(-n2cc(C3CC3)c3c(N4CCN(C(=O)OC(C)(C)C)C[C@@H]4C)ncnc32)c1 [Compound 264, tert-butyl (S)-4-(5-cyclopropyl-7-(3-methoxy-5-(trifluoromethoxy)phenyl)-7H-pyrrolo[2,3-d]pyrimidin-4-yl)-3-methylpiperazine-1-carboxylate] |
| 5.70 to 6.30 | < 5.70 | 6.30 to 7.00 |  |  |  | C[C@H]1CN(C(=O)OC(C)(C)C)CCN1c1ncnc2c1c(C1COC1)cn2-c1cc(F)cc(F)c1 [Compound 475, tert-butyl (S)-4-(7-(3,5-difluorophenyl)-5-(oxetan-3-yl)-7H-pyrrolo[2,3-d]pyrimidin-4-yl)-3-methylpiperazine-1-carboxylate] |
| 6.30 to 7.00 | 5.70 to 6.30 | 6.30 to 7.00 |  |  |  | C[C@H]1CN(C(=O)OC(C)(C)C)CCN1c1ncnc2c1c(C1=CCOCC1)cn2-c1cccc(F)c1 [Compound 472, tert-butyl (S)-4-(5-(3,6-dihydro-2H-pyran-4-yl)-7-(3-fluorophenyl)-7H-pyrrolo[2,3-d]pyrimidin-4-yl)-3-methylpiperazine-1-carboxylate] |
| 6.30 to 7.00 | 6.30 to 7.00 | 6.30 to 7.00 |  |  |  | CCc1nccnc1-c1cn(-c2cccc(Cl)c2)c2ncnc(N3CCN(C(=O)OC(C)(C)C)C[C@@H]3C)c12 [Compound 271, tert-butyl (S)-4-(7-(3-chlorophenyl)-5-(3-ethylpyrazin-2-yl)-7H-pyrrolo[2,3-d]pyrimidin-4-yl)-3-methylpiperazine-1-carboxylate] |
